Experimental data taken from the OligoGym collection.
These antisense oligonucleotides have a phosphorothioate backbone; sugars and methylation of C are not fully specified.

Each sequence was assayed against MAP2K2. Settings: ASO.
Note: test concentration or dose not given here.

| Sequence | remaining target (mRNA or protein) (fraction of control) |
| --- | --- |
| TACCTTCCGACGGCCAGC | 0.18 |
| GTTCACGAGGATGTTGGA | 0.82 |
| TCCACCAGGTTTGCCTCG | 0.14 |
| TAACCTAAGGAAGCAGAG | 0.33 |
| GTGTCCTCAGCTGGAAGG | 0.61 |
| GAGGTACGCCAAGCCCCG | 0.11 |
| CGTGCCCACGAAGGAGTT | 0.26 |
| TCACCCCGAAGTCACACA | 0.56 |
| GTCACTGTAGAAGGCCCC | 0.38 |
| TCTTTCAGCACCTGGTCC | 0.48 |
| TTGGCTTTCTGGGTGAGA | 0.83 |
| CACTTCTTCCACCTCGGA | 0.31 |
| CCGTTGCCCGCGCCCAGC | 0.24 |
| ACGCAGGGAGCCCGGCCA | 0.29 |
| GGTGCTCTCCGCAGGGTG | 0.2 |
| TGGTTTGTGAGCATCTTC | 0.29 |
| TCATCGTCTTTGAGTTCG | 0.45 |
| AGCGTCGCCCGTCCCCAG | 0.15 |
| TCTCCTCGGGAATCCTCT | 0.43 |
| CTGGTTCAGCCGCAGGGT | 0.34 |
| ATGATCTGGTTCCGGATG | 0.35 |
| TGTGTTCCATGCAAATGC | 0.75 |
| CTGTGCTGGACTTTGGTG | 0.42 |
| GATGTACGGCGAGTTGCA | 0.81 |
| AACACACCGTTGGGCAGC | 0.13 |
| CGGTCGGTCGGCTCGAAT | 0.8 |
| CAGATGTCCGACTGCACC | 0.32 |
| CTTCCTCCGGGCCAGCAT | 0.37 |
| CTCCTTCTTCCCCGTCGA | 0.4 |

What follows are sequences tested against XIAP. Settings: ASO.

| Sequence | remaining target (mRNA or protein) (fraction of control) |
| --- | --- |
| CTATCATTAAATACGCTTTC | 0.99 |
| TAATGGAATTCAATCCTGAT | 0.83 |
| AGAAAATGGACAGAATCCTA | 0.74 |
| TGCCTACTATAGAGTTAGAT | 0.6 |
| ATTCGTATAGCTTCTTGTAC | 0.61 |
| CCAGGCACGATCACAAGGTT | ≥ 1 |
| TATGATGCTTCTTATTCTTA | 0.65 |
| AATCTGCAATTTGGGGATAC | 0.93 |
| GATGTCTGCAGGTACACAAG | 0.56 |
| GAAATTCCTATCAGAACTCA | 0.76 |
| TAGAGTCCAGCACTTGCTAA | 0.4 |
| TGACTAGATGTCCACAAGGA | 0.61 |
| TGTTAAAAGTCATCTTCTCT | 0.84 |
| ACAATACATGGCAGGGTTCC | 0.41 |
| TAGCAAAAGTTTTTAATCTA | 0.99 |
| CAACTAAAACACTGCCATGT | 0.54 |
| TTAAAAGTCATCTTCTCTTG | ≥ 1 |
| TCCACCAGCATGGAACAATT | 0.71 |
| TCTTCTCTTGAAAATAGGAC | 0.96 |
| AAACTGTTAAAAGTCATCTT | 0.81 |

| Sequence | remaining target (mRNA or protein) (fraction of control) |
| --- | --- |
| CATCTTCTCTTGAAAATAGG | 0.9 |
| CACTCCTCAAGTGAATGAGT | 0.52 |
| AAGTCATCTTCTCTTGAAAA | 0.6 |
| TGCTCTTCAGTACTAATCTC | 0.58 |
| ATTTATAGTTGCTCCCAGAT | 0.58 |
| AGCATGTTGTTCCCAAGGGT | 0.54 |
| TTGTACTGACCATTCTGGAT | 0.47 |
| TAGGACTTGTCCACCTTTTC | 0.58 |
| TATTAACAACATACATACTT | ≥ 1 |
| TTCAAAACTGTTAAAAGTCA | ≥ 1 |
| GCATGACAACTAAAGCACCG | 0.56 |
| TTGAAAATAGGACTTGTCCA | 0.93 |
| GTCATCTTCTCTTGAAAATA | 0.72 |
| AAAAGTCATCTTCTCTTGAA | 0.58 |
| CAAAACTGTTAAAAGTCATC | ≥ 1 |
| ATTTGTTAAGCCTATCTGAA | 0.66 |
| ACTGTTAAAAGTCATCTTCT | 0.87 |
| TCTGCATGTGTCTCAGATGG | 0.42 |
| TCCTTGTTAACTGAGTATAT | 0.69 |
| GGTTAGGTTACTGATGTTAG | ≥ 1 |
